Source: patent US20200255884A1, “METHOD OF DETECTION OF DNA END(S) AND ITS USE” (INTODNA SP. Z O.O., priority 2017, published 2020)

Test system: HeLa 21-4 cells
Test: DNA ends detection in fixed HeLa cells subjected to damaging agents (H2O2, Tpt), Procedure 1
Assay type: cell-based
Conditions: 30 min at 37 °C, H2O2 4 mM, Tpt 20 μM
Method: Procedure: • 1. Pre-preparation (optional): • Incubation of live cells with 0.5-10 mM Tris (5 min-1 h at room temperature (RT)), cells should be monitored for morphological abnormalities. • 2. Fixation and permeabilization: • a. Incubation with 1%-4% formaldehyde solution, 10-15 min, 4° C. (optional) • b. Incubation with an […] detergent (e.g. Triton X-100 (0.25-3%) 10 min-1 h, RT. (optional) • c. Incubation in 70% ethanol in water, 1 h minimum but preferred 12-18 h, −20° C., sample should be stable for several months. (optional but most preferred) • 3. Pre-blocking (optional): • a. Wash (PBS 1×5 min) • b. Streptavidin solution—incubation performed on a droplet, 30 min, RT • c. Wash (PBS 3×5 min) • d. Biotin solution—incubation performed on a droplet, 30 min, RT • e. Wash (PBS 3×5 min) • 4. Increasing accessibility of DNA ends: • Incubation with 0.5-10 mM EDTA in water, 10 min-1 h, RT. • 5. Incorporation procedure: • Incorporation of unmodified and modified nucleotides (e.g. BrdU) using terminal deoxynucleotidyl transferase: • a. incubation is performed on a droplet in a humid chamber • b. samples are rinsed in wash buffers • 6. Blocking: • Incubation with 1-5% BSA solution in PBS (from 1 h to overnight in 4° C., RT). • 7. Incubation with primary antibodies—performed on a droplet in a humid chamber: • a. primary antibodies type 1 (e.g. mouse monoclonal against BrdU), preferred dilution 1:100 in 1-5% BSA, 1 h, RT • b. wash (PBS 3×5 min) • c. primary antibodies type 2 (e.g. rabbit polyclonal against BrdU), preferred dilution 1:100 in 1-5% BSA, 1 h, RT • d. wash (PBS 3×5 min) • 8. PLA procedure: • a. incubation with PLA Probes diluted in 1% BSA (37° C., 60 min, reaction on a droplet, in a humid chamber) in 40 μl of the reaction mixture per one coverslip: • 8 μl of PLA Probe MINUS stock (e.g. anti-mouse) • 8 μl of PLA Probe PLUS stock (e.g. anti-rabbit) • 24 μl of 1% BSA • b. wash samples with Wash Buffer A (2×5 min) • c. ligation—incubation (37° C., 30 min, reaction on a droplet, in a humid chamber) in 40 μl of the reaction mixture per one coverslip: • 8 μl of 5× Ligation stock (Sigma, Duolink, DUO82009), • 31 μl of ultrapure, RNAse/DNAse free, distilled water, • 1 μl of Ligase (1 U/μl) (Sigma, Duolink, DUO82027 or DUO82029) • d. wash samples with Wash Buffer A (2×2 min) • e. amplification—incubation (37° C., 100 min, reaction performed on a droplet, in a humid chamber) in 40 μl of the reaction mixture per one coverslip: • 8 μl of 5× Amplification stock (Sigma, Duolink, DUO82060 or DUO82011), • 31.5 μl of ultrapure, RNAse/DNAse free, distilled water, • 0.5 μl of Polymerase (10 U/μl) (Sigma, Duolink, DUO82028 or DUO82030) • 9. Imaging of samples in PBS using a fluorescence microscope. […]

OO [H2O2]
percentage of cells that show signs of heavy DNA damage (apoptotic cells) in the population (untreated less than 5%): approximately 30%
average number of detectable regions of incorporation of BrdU (free ends of DNA) per cell (± standard error of the mean): 31.57±8.61
